Experiments:
[1] = system: PHTX-14B breast xenograft; experiment: In vivo tumor efficacy, PHTX-14B breast xenograft model; set-up: species or system female Balb/c nude mice; settings: for Average tumor volume at day 21: PO
Text: (§1) The PHTX-14B breast xenograft model was established from a patient-derived tumor collected during surgery from a person with ductal carcinoma classified as triple negative breast cancer (ER−/PR−/Her2−) by IHC. PHTX-14B tumor fragments (approximately 2×2×3 mm^3) at passage 7 are implanted into the subcutaneous space in the right dorsal flank of female Balb/c nude mice (age 4-6 weeks, Shanghai SINO-British SIPPR/BK Lab Animal Ltd) using a 13-gauge trocar tumor implantation needle.
(§2) MLN8237 was formulated in 10% HPbCD+1% NaHCO3 and administered by oral injection (1 cc syringe, 20-22 gauge, oral gavages needle) on QD schedule at 3 mg/kg and 20 mg/kg for 21 days. MLN8237 as used in the experimental section refers to sodium 4-{[9-chloro-7-(2-fluoro-6-methoxyphenyl)-5H-pyrimido[5,4-d][2]benzazepin-2-yl]amino}-2-methoxybenzoate monohydrate and the amount referenced is the amount of alisertib dosed. MLN8237 is dosed 24 hours prior to MLN0128 in all three models.
(§3) MLN0128 is formulated in 100% PEG400 and administered by oral injection (1 cc syringe, 20-22 gauge, oral gavages needle) on QD schedule at 0.3 mg/kg for 21 days. 1 mg/kg QD×3/weeks for 3 weeks. MLN0128 is dosed 24 hours after MLN8237 dosing.
(§4) Tumors are measured twice weekly using a vernier caliper. Tumor volumes are calculated using standard procedures (0.5×(length×width^2)). When the tumors reached a volume of approximately 200 mm^3 (PHTX-14B, PHTX-147B) or 167 mm^3 (SUM-149PT), mice are randomized into groups of 8 as described in the tables below, and dosed with vehicle, MLN8237 or MLN0128 or the combination of MLN8237 with MLN0128, at various doses as described below in Tables 8a-10a. Tumor size and body weight are measured approximately twice a week for the duration of the study. Mice are euthanized when their tumor volume reached 10% of their body weight, or when the average tumor volume of a treatment or control group reached approximately 2000 mm^3. Tumor growth continued to be monitored after the dosing period in some studies. Average tumor volume is reported as a function of time for selected groups of selected studies in FIGS. 3, 4 and 5.
(§5) Measurements from day 0 to 21 are analyzed as specified in Tables 8a-10a. All tumor volumes have a value of 1 added to them before log10 transformation. For each animal, the log tumor volume at day 0 is subtracted from the log tumor volume on the subsequent days. This difference vs. time is used to calculate an area under the curve (AUC) for each animal using the trapezoid rule. In instances when an animal in a treatment group is removed early from the study, the last observed tumor value is carried forward through all subsequent time points. The synergy score for the combination of agents A and B is defined as: 100*(mean(AUCAB)−mean(AUCA)−mean(AUCB)+mean(AUCctl))/mean(AUCctl): where AUCAB, AUCA, AUCB, and AUCctl are the AUC values for animals in the combination group, the A group, the B group, and the control group, respectively. The standard error of the synergy score is computed based on the variation in the AUC values among the animals. […] If the P-value is above 0.05, then the combination is considered to be additive. If the P-value is below 0.05, and the synergy score is less than zero, then the combination is considered to be synergistic. […] Otherwise, the combination is classified as antagonistic.

[2] = system: SUM-149PT breast xenograft; experiment: In vivo tumor efficacy, SUM-149PT breast xenograft model; set-up: species or system Balb/c Nude mice; settings: PO
Method: SUM-149PT (5×10^6) is a tumor cell line grown in Ham's F12 (BD Biosciences) media with 5% FBS, supplemented with 5 μg/ml insulin and 1 μg/ml hydrocortisone media mixed with an equal volume of Matrigel (BD Biosciences). Cell suspension at passage 84 was aseptically injected into the subcutaneous space in the right dorsal flank of Balb/c Nude mice (age 8 weeks, Shanghai SINO-British SIPPR/BK Lab Animal Ltd.) using a 25-gauge needle.
as §2, §3, §4, §5

[3] = system: PHTX-147B breast xenograft; experiment: In vivo tumor efficacy, PHTX-147B breast xenograft model; set-up: species or system female Balb/c nude mice; settings: PO
Text: as §1, with “PHTX-147B” for “PHTX-14B”, “Ltd.).” for “Ltd) using a 13-gauge trocar tumor implantation needle.”
as §2, §3, §4, §5

[4] = MLN0128 alone at 0.3 mg/kg, QD×21
[5] = MLN8237 alone at 3 mg/kg, QD×21
[6] = MLN8237 alone at 20 mg/kg, QD×21

CC(C)n1nc(-c2ccc3oc(N)nc3c2)c2c(N)ncnc21 [MLN0128, 3-(2-amino-1,3-benzoxazol-5-yl)-1-(propan-2-yl)-1H-pyrazolo [3,4-d] pyrimidin-4-amine]
Average tumor volume at day 21 ([1]; 0.3 mg/kg MLN0128, QD): 539.1 mm^3
Average tumor volume at day 21 ([1]; 1 mg/kg MLN0128, QD × 3/week): 475.6 mm^3
effect on growth of PHTX-14B xenografts ([1]; MLN0128 at 0.3 mg/kg alone, QD×21): significantly delayed growth
effect on growth of PHTX-14B xenografts ([1]; MLN0128 at 1.0 mg/kg alone): significantly delayed growth
Average tumor volume at day 21 ([2]; 0.3 mg/kg MLN0128, QD): 524.5 mm^3
Average tumor volume at day 21 ([2]; 1 mg/kg MLN0128, QD × 3/week): 696.8 mm^3
effect on growth of SUM149PT xenografts [2, 4]: significantly delayed the growth
effect on growth of SUM149PT xenografts ([2]; MLN0128 alone at 1.0 mg/kg, QD×3/wk×3 weeks): only responded lightly
Average tumor volume at day 21 ([3]; 0.3 mg/kg MLN0128, QD): 1354.1 mm^3
Average tumor volume at day 21 ([3]; 1 mg/kg MLN0128, QD × 3/week): 974.8 mm^3
effect on growth of PHTX-147B xenografts [3, 4]: responded moderately
effect on growth of PHTX-147B xenografts ([3]; MLN0128 alone at 1.0 mg/kg, QD×3/wk×3): significantly delayed the growth

COc1cc(Nc2ncc3c(n2)-c2ccc(Cl)cc2C(c2c(F)cccc2OC)=NC3)ccc1C(=O)[O-].O.[Na+] [MLN8237, sodium 4-{[9-chloro-7-(2-fluoro-6-methoxyphenyl)-5H-pyrimido[5,4-d][2]benzazepin-2-yl]amino}-2-methoxybenzoate monohydrate]
Average tumor volume at day 21 ([1]; 3 mg/kg MLN8237, QD): 795.1 mm^3
Average tumor volume at day 21 ([1]; 20 mg/kg MLN8237, QD): 533.9 mm^3
antitumor activity in PHTX-14B xenografts ([1]; MLN8237 at 3 mg/kg alone, QD×21): limited and not significant
effect on growth of PHTX-14B xenografts ([1]; MLN8237 at 20 mg/kg alone, QD×21): significantly delayed growth
Average tumor volume at day 21 ([2]; 3 mg/kg MLN8237, QD): 613.4 mm^3
Average tumor volume at day 21 ([2]; 20 mg/kg MLN8237, QD): 451.6 mm^3
effect on growth of SUM149PT xenografts [2, 5]: significantly delayed the growth
effect on growth of SUM149PT xenografts [2, 6]: significantly delayed the growth
Average tumor volume at day 21 ([3]; 3 mg/kg MLN8237, QD): 1951.9 mm^3
Average tumor volume at day 21 ([3]; 20 mg/kg MLN8237, QD): 1694.9 mm^3
effect on PHTX-147B xenograft growth [3, 5]: only slight or no effect
effect on PHTX-147B xenograft growth [3, 6]: only slight or no effect

From US9724354B2, “Combination of catalytic mTORC1/2 inhibitors and selective inhibitors of Aurora A kinase” (Millennium Pharmaceuticals, Inc., priority 2013, dated 2017)
